Assay [1] relates to proliferating and senescent A549 cells. Description: Colony formation with low dose IgA-cona-dim, NEO2734 and Z-VAD-FMK. It is filed as cell-based. The note with it: 10 μM Z-VAD-FMK; alisertib-induced senescent A549. The protocol:
(§1) FIG. 10: Colony formation in proliferating and alisertib-induced senescent A549 (A), Hep1 (B) and MM231 (C) cells with IgG1-cona or IgA-cona-dim DR5 agonist antibodies. Colony formation in proliferating and alisertib-induced senescent A549 cells treated with the low dose of 0.125 μg/ml IgA-cona-dim, 0.25 μM NEO2734 and 10 μM Z-VAD-FMK (D). Colony formation using low dose 0.25 μM of NEO2734 and 0.125 μg/ml IgA-cona-dim A549 cells made senescent by one-week treatment with 1 μM barasertib, 0.5 μM PF-06873600, 100 nM doxorubicin, 50 nM CFI-400945, 2 μM Etoposide or 1 μM TAS-119 (E).

For assay [2], the system named is alisertib-induced senescent A549, Hep1 and MM231 cells. As to the kind of experiment: Colony formation with IgG1-cona or IgA-cona-dim DR5 agonist antibodies. Type of assay: cell-based. The note with it: side-by-side IgG1 and IgA-cona-dim forms of conatumumab. How it is done: as §1
Antibodies were generated by expression of SEQ 1 and SEQ 3 (IgG1-cona), SEQ 2 and SEQ 3 (IgA-cona), or SEQ 2, SEQ 3 and SEQ 4 (IgA-cona-dim) as described (Beyer et al., 2009. J Immunol Methods 346: 26-37), by employing the nucleotide sequences SEQ 5 and SEQ 6 (IgG1-cona), SEQ 6 and SEQ 7 (IgA-cona), or SEQ 6, SEQ 7 and SEQ 8 (IgA-cona-dim). SEQ 4 depicts a sequence of an immunoglobulin J chain, which links two or more IgA monomer units.

Experimental findings from US20240382499A1, “INDUCERS OF SENESCENCE, IN COMBINATION WITH A SELECTIVE DEATH RECEPTOR 5 (DR5) AGONIST, FOR USE IN A METHOD OF TREATING CANCER” (Stichting Het Nederlands Kanker Instituut-Antoni van …, priority 2021, published 2024) are described below.

Residues, ends and D or L forms follow the SMILES beside them. *: point of attachment. Cbz = O=C(OCc1ccccc1)*; CH2F = FC*

`COC(=O)C[C@H](NC(=O)[C@H](C)NC(=O)[C@@H](NC(=O)OCc1ccccc1)C(C)C)C(=O)CF` [Z-VAD-FMK] (Cbz-Val-Ala-Asp(OMe)-CH2F): the “rescue from IgA-cona-dim plus NEO2734 mediated senolysis” value in assay [1] was “fully rescue the cells from senolysis”.
Consider “IgA-cona-dim: dimeric form of IgA-conatumumab, SEQ 2, SEQ 3 and SEQ 4 (J chain)”, for which, in assay [2], the “senolytic potency compared with IgG form” value is listed as “most potent DR5 agonist to eliminate senescent cells”.
